{"source": "patent US20160009751A1", "about": "“C-19 HYDROXY PREGNENES” (LEO Pharma A/S, priority 2014, published 2016)", "key": {"[1]": {"biological_target": "T1, recombinant glucocorticoid receptor (GR) (Homo sapiens, UniProt P04150)", "T1 sequence (P04150 1-777)": "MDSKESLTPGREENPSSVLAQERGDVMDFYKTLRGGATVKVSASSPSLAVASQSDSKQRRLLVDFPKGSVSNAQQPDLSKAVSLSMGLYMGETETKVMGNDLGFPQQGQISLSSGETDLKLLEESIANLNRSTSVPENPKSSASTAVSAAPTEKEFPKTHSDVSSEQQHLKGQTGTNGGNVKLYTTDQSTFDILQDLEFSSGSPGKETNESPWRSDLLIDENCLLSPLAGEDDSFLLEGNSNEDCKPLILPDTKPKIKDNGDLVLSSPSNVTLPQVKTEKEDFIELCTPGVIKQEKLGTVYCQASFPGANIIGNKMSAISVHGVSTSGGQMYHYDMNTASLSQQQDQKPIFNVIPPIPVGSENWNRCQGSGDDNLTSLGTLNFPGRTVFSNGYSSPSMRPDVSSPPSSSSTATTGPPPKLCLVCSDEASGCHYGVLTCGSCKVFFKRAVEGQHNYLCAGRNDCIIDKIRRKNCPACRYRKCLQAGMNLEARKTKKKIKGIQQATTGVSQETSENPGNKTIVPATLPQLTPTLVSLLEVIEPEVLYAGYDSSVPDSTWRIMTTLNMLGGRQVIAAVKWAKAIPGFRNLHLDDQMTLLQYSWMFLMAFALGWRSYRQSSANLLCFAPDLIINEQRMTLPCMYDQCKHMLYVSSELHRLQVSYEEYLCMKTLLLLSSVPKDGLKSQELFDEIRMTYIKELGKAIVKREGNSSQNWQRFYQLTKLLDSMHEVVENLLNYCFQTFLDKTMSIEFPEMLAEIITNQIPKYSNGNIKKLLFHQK", "experiment": "Glucocorticoid receptor (GR) competitive binding assay (PolarScreen, fluorescence polarization)", "conditions": "competition with Fluormone GS1, 2 hours at room temperature; relative IC50; read-out: GR binding; Rel IC50", "description": "Glucocorticoid receptor binding was determined by competitive receptor binding assay using the PolarScreen™ Glucocorticoid Receptor Competitor Assay Kit, Green (Life Technologies, catalogue number A15897) in a 384-well format according to the manufacturer's instructions. Briefly, serial dilutions of test and reference compounds were prepared in 384-well plates. Subsequently, the steroidal competitor Fluormone™ GS1 and recombinant glucocorticoid receptor (GR) were added to all wells and the plate was incubated for 2 hours at room temperature and protected from light. Finally, polarization values in each well were determined by reading the plate in an EnVision (PerkinElmer) device."}, "[2]": {"test_system": "Interleukin-12B (IL-12B) release from primary human monocytes (PBMC)", "experiment": "Interleukin-12B (IL-12B) release from LPS-stimulated primary human monocytes (PBMC)", "type": "cell-based", "conditions": "100 ng/ml LPS for 18 h, ELISA, relative IC50, read-out: Interleukin-12B (IL-12B), Rel IC50", "excerpt": "The assay was adopted from a previously reported method (Schäcke et al, Br 3 Pharmacol (2009); 158(4): 1088-103) and is based on PBMC isolated from human blood. Stimulation of these cells with lipopolysaccharide (LPS) induces—among many other processes—the synthesis and secretion of the cytokine IL-12B. Both steroidal (glucocorticoids) and non-steroidal glucocorticoid receptor agonists act anti-inflammatory—e.g. by preventing DNA-binding of inflammatory transcription factors like AP-1 or NFkB—resulting in decreased synthesis/secretion of IL12B.\nFor compound testing, frozen stocks of PBMC were thawed, seeded in 96-well plates (1.2E5 cells/well) and then incubated in RPMI-1640 culture medium with 100 ng/ml LPS for 18 h with or without test compounds (pre-incubation with reference/test compounds for 1 h before addition of LPS). Then, IL-12B concentration in the cell culture supernatants was detected by hIL-12B-specific ELISA (Quantikine® human IL-12 p40 Immunoassay, R&D Systems Cat #SP400)."}, "[3]": {"biological_target": "T2, mineralocorticoid receptor (MR) (Homo sapiens, UniProt P08235)", "T2 construct": "UAS-driven beta-lactamase reporter", "T2 sequence (P08235 726-984 limits assumed)": "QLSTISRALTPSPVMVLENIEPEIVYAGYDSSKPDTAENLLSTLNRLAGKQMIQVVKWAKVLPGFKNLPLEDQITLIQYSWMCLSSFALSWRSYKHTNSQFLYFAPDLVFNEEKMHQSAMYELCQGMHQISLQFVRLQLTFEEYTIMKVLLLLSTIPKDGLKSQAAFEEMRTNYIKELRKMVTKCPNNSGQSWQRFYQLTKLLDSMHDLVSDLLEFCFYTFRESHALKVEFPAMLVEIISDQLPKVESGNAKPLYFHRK", "experiment": "Mineralocorticoid receptor (MR) antagonism assay (GeneBLAzer MR DA, beta-lactamase reporter)", "type": "cell-based", "conditions": "0.14 nM-1 uM test compound, 10 nM aldosterone; relative IC50; read-out: Mineral corticoid receptor (MR) antagonism; Rel IC50", "description": "Agonistic and antagonistic interaction with the mineralocorticoid receptor was determined using the GeneBLAzer® MR DA Assay Kit (Life Technologies, catalogue number K1409) in a 96-well format according to the manufacturer's instructions. For determination of MR agonistic effect, cells were incubated with 0.14 nM-1 uM of test compound; the MR agonist aldosterone was included as a positive control in the same concentration range. After 16 h incubation, assay substrate (LiveBLAzer™-FRET B/G) was added to all wells and cells were incubated for 2 h followed by fluorometric detection (409/447 nm excitation and emission wavelength, respectively) of substrate conversion by beta-lactamase.\nAfter 0.5 h, 10 nM of the MR agonist aldosterone was added to all wells and cells were incubated for another 15.5 h. After that, assay substrate (LiveBLAzer™-FRET B/G) was added to all wells and cells were incubated for 2 h followed by fluorometric detection (409/447 nm excitation and emission wavelength, respectively) substrate conversion by beta lactamase."}}, "data": [{"smiles": "CCCCC(=O)O[C@]1(C(=O)CO)[C@@H](C)C[C@H]2[C@@H]3CCC4=CC(=O)C=C[C@]4(C)[C@@]3(F)[C@@H](O)C[C@@]21C", "note": "[Bethamethasone valerate]", "values": [{"measurement": "IC50", "setting": "[1]", "value": 0.007, "unit": "µM"}, {"measurement": "IC50", "setting": "[2]", "value": "< 0.001", "unit": "µM"}, {"measurement": "IC50", "setting": "[3]", "value": 0.137, "unit": "µM"}]}, {"smiles": "CCC(=O)O[C@]1(C(=O)CCl)[C@@H](C)C[C@H]2[C@@H]3CCC4=CC(=O)C=C[C@]4(C)[C@@]3(F)[C@@H](O)C[C@@]21C", "note": "[Clobetasol propionate]", "values": [{"measurement": "IC50", "setting": "[1]", "value": 0.006, "unit": "µM"}, {"measurement": "IC50", "setting": "[2]", "value": "< 0.001", "unit": "µM"}, {"measurement": "IC50", "setting": "[3]", "value": 0.171, "unit": "µM"}]}, {"smiles": "CCC(=O)O[C@]1(C(=O)CCl)CC[C@H]2[C@@H]3CCC4=CC(=O)CC[C@]4(CO)[C@H]3[C@@H](O)C[C@@]21C", "note": "[Compound 1, (8S,9S,10S,11S,13S,14S,17R)-17-(2-chloroacetyl)-11-hydroxy-10-(hydroxymethyl-13-methyl-3-oxo-2,3,6,7,8,9,10,11,12,13,14,15,16,17-tetradecahydro-1H-cyclopenta[a]phenanthren-17-yl propionate]", "values": [{"measurement": "IC50", "setting": "[1]", "value": 0.025, "unit": "µM"}, {"measurement": "IC50", "setting": "[2]", "value": 0.036, "unit": "µM"}, {"measurement": "IC50", "setting": "[3]", "value": "> 1", "unit": "µM"}]}, {"smiles": "CCC(=O)O[C@]1(C(=O)CCl)CC[C@H]2[C@@H]3C[C@@H](F)C4=CC(=O)CC[C@]4(CO)[C@H]3[C@@H](O)C[C@@]21C", "note": "[Compound 2, (6R,8S,9S,10S,11S,13S,14S,17R)-17-(2-chloroacetyl)-6-fluoro-11-hydroxy-10-(hydroxymethyl)-13-methyl-3-oxo-2,3,6,7,8,9,10,11,12,13,14,15,16,17-tetradecahydro-1H-cyclopenta[a]phenanthren-17-yl propionate]", "values": [{"measurement": "IC50", "setting": "[1]", "value": 0.04, "unit": "µM"}, {"measurement": "IC50", "setting": "[2]", "value": 0.031, "unit": "µM"}]}]}
